Experimental findings from patent publication US20030065039A1, “Biologically active 1,3-bis-aromatic-prop-2-en-1-ones, 1,3-bis-aromatic-propan-1-ones, and 1,3-bis-aromatic-prop-2-yn-1-ones” (Statens Serum Institute, priority 1997, published 2003) are described below.

Molecules are shown by their SMILES. Marks after values point to notes of the source that are not given here.

One data set deals with Bacteroides fragilis. Put plainly: Effect on anaerobic bacteria (growth). The data set is classed as cell-based. The following applies: at a concentration of 5 μg/ml.
For a further data set, the system named is Peptostreptococcus. Put plainly: Effect on anaerobic bacteria (growth). The data set is classed as cell-based. Conditions: at a concentration of 5 μg/ml.
The next data set addresses FRD (L. major). Nature of the data set: Effect on fumarate reductase of L. major promastigotes. The data set is classed as biochemical, Leishmania major. Conditions: incubation at 28° C. for 5 min. On the procedure: FIG. 5. Effect of licochalcone A on Leishmania major fumarate reductase. Digitonin treated promastigotes was incubated with licochalcone A at 28° C. 30 min, and the remaining enzyme activity was measured. Data are mean ±SEM from 6 different experiments.
FIG. 6. Effect of licochalcone A on Leishmania major fumarate reductase. KCL-solubilised fumarate reductase was incubated with licochalcone A at 28° C. 30 min, and the remaining enzyme activity was measured. Data are mean ±SEM from 6 different experiments.
Parasites were harvested by centrifugation at 1000 g for 10 min, and were washed 2 times in an isotonic phosphate saline buffer (50 mM sodium phosphate, pH 7.2, 90 mM NaCl, 5 mM KCl). […]
NADH-FRD activity was determined as the rate of NADH-oxidation upon addition of 1 mM fumarate in the KCl-solubilized fraction. The reaction was monitored spectrophotometrically at 340 nm ((=6.2 mM^−1 cm^−1) using 100 μM NADH and usually 0.1 mg protein in both reference and sample cuvettes. The measurement was carried out in a Shimadzu UV-190 double-beam spectrophotometer. Protein concentrations were determined using a Bio-Rad protein assay (Bio-Rad Laboratories, 200 Alfred Nobel Dr. Hercules, Calif. 94547, USA).
KCl solubilized fraction of Leishmania major promastigotes was incubated with different concentrations of various oxygenated chalcones at 28° C. and the remaining FRD activity was measured.

Another data set relates to SDH (L. major). Put plainly: Effect on succinate dehydrogenase of L. major promastigotes. In kind it is biochemical, Leishmania major. An excerpt: FIG. 10. Licochalocone A on SDH of L. major promastigotes (membrane rich fraction)
Another data set has as its target T1, SDH (human MNC) (Homo sapiens, UniProt P31040).
T1 construct: endogenous in cells; host or cells: human blood mononuclear cells (MNC), membrane rich fraction
Nature of the data set: Effect on human MNC succinate dehydrogenase. In kind it is biochemical. Conditions: incubation at 28° C. for 5 min.

Another data set addresses NDH (L. major). Nature of the data set: Effect on L. major NADH dehydrogenase. Conditions: incubation at 28° C. In kind it is biochemical, Leishmania major. An excerpt:
FIG. 11. Effect of licochalcone A on Leishmania major NADH dehhydrogenase. […] Data are mean ±SEM from 6 different experiments.

The next data set concerns the target NDH (human MNC). Put plainly: Effect on human MNC NADH dehydrogenase. The data set is classed as biochemical. The following applies: incubation at 28° C. for 5 min. The method, then: FIG. 15. Effect of licochalcone A on human MNC NADH dehydrogenase. Membrane rich fraction of parasite was incubated with licochalcone A at 28° C. for 5 min, the remaining enzyme activity was measured. Data are mean ±SEM from 4 different experiments.

The next data set addresses SCC (L. major). Nature of the data set: Effect on L. major succinate-cytochrome c reductase. In kind it is biochemical, Leishmania major. Conditions: incubation at 28° C. for 5 min. On the procedure: FIG. 12. Effect of licochalcone A on Leishmania major succinate-cytochrome c reductase. Membrane rich fraction of parasite was incubated with licochalcone A at 28° C. for 5 min, the remaining enzyme activity was measured. Data are mean ±SEM from 4 different experiments.

For the next data set, the target named is NCC (L. major). Nature of the data set: Effect on L. major NADH-cytochrome c reductase. In kind it is biochemical, Leishmania major. Conditions: incubation at 28° C. for 5 min. The method, then:
FIG. 13. Effect of licochalcone A on Leishmania major NADH-cycochrome c reductase. Membrane rich fraction of parasite was incubated with licochalcone A at 28° C. for 5 min, the remaining enzyme activity was measured. Data are mean ±SEM from 4 different experiments.

Data set [1] in a line: Single dose toxicity in mice. The data set is classed as in vivo. The method, then:
Also in rats, LDlow po>1000 mg/kg was found. Studies carried out later in the project using the dosing schedule, also used to measure effects against the malaria parasites, confirmed the very good oral tolerance to all compounds tested.

For another data set, the system named is Leishmania major. Nature of the data set: Respiration of Leishmania major (O2 consumption, CO2 production). In kind it is cell-based.
In data set [2] the test system is parasite mitochondrial dehydrogenase. Nature of the data set: Parasite mitochondrial dehydrogenase activity. In kind it is biochemical, Leishmania major.
The next data set deals with CHO cells. Put plainly: Chromosomal aberration assay with CHO cells. The data set is classed as cell-based. The following applies: both with and without metabolic activation (S9 mix).

T1 sequence (P31040 43-664): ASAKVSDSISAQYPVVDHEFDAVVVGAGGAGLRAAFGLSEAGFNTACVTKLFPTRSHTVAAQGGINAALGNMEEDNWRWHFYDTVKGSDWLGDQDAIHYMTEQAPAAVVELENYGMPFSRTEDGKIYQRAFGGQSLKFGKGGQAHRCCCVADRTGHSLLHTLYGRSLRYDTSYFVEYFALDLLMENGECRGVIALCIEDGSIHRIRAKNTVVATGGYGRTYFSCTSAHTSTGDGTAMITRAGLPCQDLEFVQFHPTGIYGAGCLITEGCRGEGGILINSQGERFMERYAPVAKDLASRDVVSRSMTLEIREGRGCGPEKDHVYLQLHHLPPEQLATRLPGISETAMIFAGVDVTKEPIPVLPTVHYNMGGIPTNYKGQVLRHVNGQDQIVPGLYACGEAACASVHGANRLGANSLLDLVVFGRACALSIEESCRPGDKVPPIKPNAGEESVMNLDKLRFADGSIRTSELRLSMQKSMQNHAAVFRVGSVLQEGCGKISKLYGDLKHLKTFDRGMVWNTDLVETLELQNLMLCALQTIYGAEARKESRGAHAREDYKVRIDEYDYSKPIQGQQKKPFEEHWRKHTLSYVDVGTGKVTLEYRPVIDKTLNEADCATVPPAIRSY
T1 sequence (P21912 29-280 partner): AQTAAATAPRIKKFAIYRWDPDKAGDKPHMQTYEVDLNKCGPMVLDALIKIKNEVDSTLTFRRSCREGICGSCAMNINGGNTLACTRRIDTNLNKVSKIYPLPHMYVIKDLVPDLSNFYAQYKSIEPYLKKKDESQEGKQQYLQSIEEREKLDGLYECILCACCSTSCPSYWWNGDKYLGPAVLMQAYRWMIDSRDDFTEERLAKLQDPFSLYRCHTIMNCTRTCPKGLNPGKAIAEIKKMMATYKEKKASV
T1 sequence (Q99643 30-169 partner): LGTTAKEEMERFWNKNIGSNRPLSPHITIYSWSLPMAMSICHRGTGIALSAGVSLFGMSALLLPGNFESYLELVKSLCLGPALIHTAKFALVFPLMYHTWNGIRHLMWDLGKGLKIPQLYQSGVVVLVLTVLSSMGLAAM
T1 sequence (O14521 57-159 partner): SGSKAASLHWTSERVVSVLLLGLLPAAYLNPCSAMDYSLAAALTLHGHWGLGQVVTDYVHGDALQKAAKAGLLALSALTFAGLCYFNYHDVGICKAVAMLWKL

As for `C=CC(C)(C)c1cc(/C=C/C(=O)c2ccc(O)cc2)c(OC)cc1O` [Licochalcone A], the “growth of Bacteroides fragilis” value in the data set with Bacteroides fragilis is given as “completely inhibted”. Also, the “growth of Peptostreptococcus” value in the data set with Peptostreptococcus was “completely inhibted”. For the same compound, the IC50 at FRD (L. major) is reported as 54.7 μg/mg protein; against SDH (L. major) (incubation at 28° C. for 5 min) it was >250* μg/mg protein; on SDH (human MNC), 799.7 μg/mg protein; against NDH (L. major) it was 415.1 μg/mg protein; at NDH (human MNC), 454.2 μg/mg protein; against SCC (L. major), 647.6 μg/mg protein. In addition, the IC50 against NCC (L. major) is recorded as 387.5 μg/mg protein. The inhibition result in the data set with SDH (L. major) (at 250 μg/mg protein) is listed as “*29% inhibition at 250 μg/mg protein”. The compound further gave an LDlow po in [1] above 1000 mg/kg. Moreover, the “respiration of the parasite (O2 consumption, CO2 production)” value with Leishmania major was “inhibited the respiration of the parasite in a concentration-dependent manner”. Besides, the “activity of the parasite mitochondrial dehydrogenase” value in [2] is recorded as “inhibited the activity of the parasite mitochondrial dehydrogenase”.
Consider `C=CCOc1ccc(C(=O)/C=C/c2cc(OC)cc(OC)c2)cc1` [SBC-35ma, 3,5-dimethoxy-4′-allyloxychalcone], for which, in the data set with CHO cells, the “chromosomal aberration assay with CHO cells” value is listed as “clear clastogenic response”.
